Experimental data taken from patent US20230059136A1, “THE COMPOUNDS AND COMPOSITIONS FOR TREATING CONDITIONS ASSOCIATED WITH NLRP ACTIVITY” (Novartis AG, priority 2018, published 2023).

Tested on: IL-1β production in PMA-differentiated THP-1 cells
Assay: IL-1β production in PMA-differentiated THP-1 cells stimulated with gramicidin (hTHP-1 assay containing 2% fetal bovine serum)
Type: cell-based, human
Details: Table B1; 2% fetal bovine serum; class symbols; read-out: hTHP-1 IC50 (Average IC50 of compounds in hTHP-1 assay)
Experimental: Procedure 1: IL-1β Production in PMA-Differentiated THP-1 Cells Stimulated with Gramicidin.
THP-1 cells were purchased from the American Type Culture Collection and sub-cultured according to instructions from the supplier. Cells were cultured in complete RPMI 1640 (containing 10% heat inactivated FBS, penicillin (100 units/ml) and streptomycin (100 μg/ml)), and maintained in log phase prior to experimental setup. Prior to the experiment, compounds were dissolved in dimethyl sulfoxide (DMSO) to generate a 30 mM stock. The compound stock was first pre-diluted in DMSO to 3, 0.34, 0.042 and 0.0083 mM intermediate concentrations and subsequently spotted using Echo550 liquid handler into an empty 384-well assay plate to achieve desired final concentration (e.g. 100, 33, 11, 3.7, 1.2, 0.41, 0.14, 0.046, 0.015, 0.0051, 0.0017 μM). DMSO was backfilled in the plate to achieve a final DMSO assay concentration of 0.37%. The plate was then sealed and stored at room temperature until required.
THP-1 cells were treated with PMA (Phorbol 12-myristate 13-acetate) (20 ng/ml) for 16-18 hours. On the day of the experiment the media was removed and adherent cells were detached with trypsin for 5 minutes. Cells were then harvested, washed with complete RPMI 1640, spun down, and resuspended in RPMI 1640 (containing 2% heat inactivated FBS, penicillin (100 units/ml) and streptomycin (100 μg/ml). The cells were plated in the 384-well assay plate containing the spotted compounds at a density of 50,000 cells/well (final assay volume 50 μl). Cells were incubated with compounds for 1 hour and then stimulated with gramicidin (5 μM) (Enzo) for 2 hours. Plates were then centrifuged at 340 g for 5 min. Cell free supernatant (40 μL) was collected using a 96-channel PlateMaster (Gilson) and the production of IL-1β was evaluated by HTRF (cisbio). The plates were incubated for 18 h at 4° C. and read using the preset HTRF program (donor emission at 620 nm, acceptor emission at 668 nm) of the SpectraMax i3x spectrophotometer (Molecular Devices, software SoftMax 6). A vehicle only control and a dose titration of CRID3 (100-0.0017 μM) were run concurrently with each experiment.
Procedure 2: IL-1β Production in PMA-Differentiated THP-1 Cells Stimulated with Gramicidin.
THP-1 cells were purchased from the American Type Culture Collection and sub-cultured according to instructions from the supplier. Prior to experiments, cells were cultured in complete RPMI 1640 (containing 10% heat inactivated FBS, penicillin (100 units/ml) and streptomycin (100 μg/ml)), and maintained in log phase prior to experimental setup. Prior to the experiment THP-1 were treated with PMA (Phorbol 12-myristate 13-acetate) (20 ng/ml) for 16-18 hours. Compounds were dissolved in dimethyl sulfoxide (DMSO) to generate a 30 mM stock. On the day of the experiment the media was removed and adherent cells were detached with trypsin for 5 minutes. Cells were then harvested, washed with complete RPMI 1640, spun down, resuspended in RPMI 1640 (containing 2% heat inactivated FBS, penicillin (100 units/ml) and streptomycin (100 μg/ml). The cells were plated in a 384-well plate at a density of 50,000 cells/well (final assay volume 50 μl). Compounds were first dissolved in assay medium to obtain a 5× top concentration of 500 μM. 10 step dilutions (1:3) were then undertaken in assay medium containing 1.67% DMSO. 5× compound solutions were added to the culture medium to achieve desired final concentration (e.g. 100, 33, 11, 3.7, 1.2, 0.41, 0.14, 0.046, 0.015, 0.0051, 0.0017 μM). Final DMSO concentration was at 0.37%. Cells were incubated with compounds for 1 hour and then stimulated with gramicidin (5 μM) (Enzo) for 2 hours. Plates were then centrifuged at 340 g for 5 min. Cell free supernatant (40 μL) was collected using a 96-channel PlateMaster (Gilson) and the production of IL-1β was evaluated by HTRF (cisbio). A vehicle only control and a dose titration of CRID3 (100-0.0017 μM) were run concurrently with each experiment. […]

| Structure (SMILES) | IC50 [nM] |
| --- | --- |
| CC(C)c1cc(F)cc(C(C)C)c1CC(=O)N=S(N)(=O)c1sc(C(C)(C)O)cc1F (single isomer, unassigned) [Example 51, (R)- or (S)-2-(4-fluoro-2,6-diisopropylphenyl)-N-(3-fluoro-5-(2-hydroxypropan-2-yl)thiophen-2-ylsulfonimidoyl)acetamide] | 200 to 1000 |
| CC(C)c1cc(F)cc(C2CC2)c1CC(=O)N=S(N)(=O)c1sc(C(C)(C)O)cc1F (single isomer, unassigned) [Example 52, (S)- or (R)-2-(2-cyclopropyl-4-fluoro-6-isopropylphenyl)-N-(3-fluoro-5-(2-hydroxypropan-2-yl)thiophen-2-ylsulfonimidoyl)acetamide] | 8 to 40 |
| CC(C)c1cc(F)cc(C2CC2)c1CC(=O)N=S(N)(=O)c1sc(C(C)(C)O)cc1F (single isomer, unassigned) [Example 53, (R)- or (S)-2-(2-cyclopropyl-4-fluoro-6-isopropylphenyl)-N-(3-fluoro-5-(2-hydroxypropan-2-yl)thiophen-2-ylsulfonimidoyl)acetamide] | 1000 to 5000 |
| CC(C)c1c(F)c(C#N)cc(C2CC2)c1CC(=O)N=S(N)(=O)c1sc(C(C)(C)O)cc1F (single isomer, unassigned) [Example 54, (S)- or (R)-2-(4-cyano-6-cyclopropyl-3-fluoro-2-isopropylphenyl)-N-(3-fluoro-5-(2-hydroxypropan-2-yl)thiophen-2-ylsulfonimidoyl)acetamide] | 8 to 40 |
| CC(C)c1c(F)c(C#N)cc(C2CC2)c1CC(=O)N=S(N)(=O)c1sc(C(C)(C)O)cc1F (single isomer, unassigned) [Example 55, (R)- or (S)-2-(4-cyano-6-cyclopropyl-3-fluoro-2-isopropylphenyl)-N-(3-fluoro-5-(2-hydroxypropan-2-yl)thiophen-2-ylsulfonimidoyl)acetamide] | 1000 to 5000 |
| CC(C)c1cc(Cl)c(F)c(C2CC2)c1CC(=O)N=S(N)(=O)c1sc(C(C)(C)O)cc1F (single isomer, unassigned) [Example 56, (S)- or (R)-2-(4-chloro-2-cyclopropyl-3-fluoro-6-isopropylphenyl)-N-(3-fluoro-5-(2-hydroxypropan-2-yl)thiophen-2-ylsulfonimidoyl)acetamide] | 200 to 1000 |
| CC(C)c1cc(Cl)c(F)c(C2CC2)c1CC(=O)N=S(N)(=O)c1sc(C(C)(C)O)cc1F (single isomer, unassigned) [Example 57, (R)- or (S)-2-(4-chloro-2-cyclopropyl-3-fluoro-6-isopropylphenyl)-N-(3-fluoro-5-(2-hydroxypropan-2-yl)thiophen-2-ylsulfonimidoyl)acetamide] | 1000 to 5000 |
| Cc1nc(C(C)(C)O)sc1S(N)(=O)=NC(=O)Cc1c(C(C)C)cc(C#N)cc1C(C)C (single isomer, unassigned) [Example 60, (S)- or (R)-2-(4-cyano-2,6-diisopropylphenyl)-N-(2-(2-hydroxypropan-2-yl)-4-methylthiazole-5-sulfonimidoyl)acetamide] | 40 to 200 |

Second part, the molecule after the results:

| IC50 [nM] | Structure (SMILES) |
| --- | --- |
| 5000 to 30000 | Cc1nc(C(C)(C)O)sc1S(N)(=O)=NC(=O)Cc1c(C(C)C)cc(C#N)cc1C(C)C (single isomer, unassigned) [Example 61, (R)- or (S)-2-(4-cyano-2,6-diisopropylphenyl)-N-(2-(2-hydroxypropan-2-yl)-4-methylthiazole-5-sulfonimidoyl)acetamide] |
| 200 to 1000 | CC(C)c1cc(C#N)cc(C(C)C)c1CC(=O)N=S(N)(=O)c1sc(C(C)(C)O)nc1CO (single isomer, unassigned) [Example 64, N-(amino(4-(hydroxymethyl)-2-(2-hydroxypropan-2-yl)thiazol-5-yl)(oxo)-λ^6-sulfaneylidene)-2-(4-cyano-2,6-diisopropylphenyl)acetamide] |
| 5000 to 30000 | CC(C)c1cc(C#N)cc(C(C)C)c1CC(=O)N=S(N)(=O)c1sc(C(C)(C)O)nc1CO (single isomer, unassigned) [Example 65] |
| 200 to 1000 | COCc1cc(C(C)C)c(CC(=O)N=S(N)(=O)c2sc(C(C)(C)O)nc2CO)c(C(C)C)c1 (single isomer, unassigned) [Example 68, (S)- or (R)-2-(2,6-diisopropyl-4-(methoxymethyl)phenyl)-N-(4-(hydroxymethyl)-2-(2-hydroxypropan-2-yl)thiazol-5-ylsulfonimidoyl)acetamide] |
| 5000 to 30000 | COCc1cc(C(C)C)c(CC(=O)N=S(N)(=O)c2sc(C(C)(C)O)nc2CO)c(C(C)C)c1 (single isomer, unassigned) [Example 69, (R)- or (S)-2-(2,6-diisopropyl-4-(methoxymethyl)phenyl)-N-(4-(hydroxymethyl)-2-(2-hydroxypropan-2-yl)thiazol-5-ylsulfonimidoyl)acetamide] |
| 200 to 1000 | CC(C)c1cc(C#N)cc(C2CC2)c1CC(=O)N=S(N)(=O)c1sc(C(C)(C)O)nc1CO (single isomer, unassigned) [Example 70, (S)- or (R)-(4-cyano-2-cyclopropyl-6-isopropylphenyl)-N-(4-(hydroxymethyl)-2-(2-hydroxypropan-2-yl)thiazol-5-ylsulfonimidoyl)acetamide] |
| 5000 to 30000 | CC(C)c1cc(C#N)cc(C2CC2)c1CC(=O)N=S(N)(=O)c1sc(C(C)(C)O)nc1CO (single isomer, unassigned) [Example 71, (R)- or (S)-2-(4-cyano-2-cyclopropyl-6-isopropylphenyl)-N-(4-(hydroxymethyi)-2-(2-hydroxypropan-2-yl)thiazol-5-ylsulfonimidoyl)acetamide] |
| 40 to 200 | CC(C)c1cc(OC(F)F)cc(C(C)C)c1CC(=O)N=S(N)(=O)c1sc(C(C)(C)O)cc1F (single isomer, unassigned) [Example 76, (S)- or (R)-2-(4-(difluoromethoxy)-2,6-diisopropylphenyl)-N-(3-fluoro-5-(2-hydroxypropan-2-yl)thiophen-2-ylsulfonimidoyl)acetamide] |
| 1000 to 5000 | CC(C)c1cc(OC(F)F)cc(C(C)C)c1CC(=O)N=S(N)(=O)c1sc(C(C)(C)O)cc1F (single isomer, unassigned) [Example 77, (R)- or (S)-(4-(difluoromethoxy)-2,6-diisopropylphenyl)-N-(3-fluoro-5-(2-hydroxypropan-2-yl)thiophen-2-ylsulfonimidoyl)acetamide] |
| 200 to 1000 | CCc1cc(OC(F)F)cc(C(C)C)c1CC(=O)N=S(N)(=O)c1sc(C(C)(C)O)cc1F (single isomer, unassigned) [Example 78, (S)- or (R)-2-(4-(difluoromethoxy)-2-ethyl-6-isopropylphenyl)-N-(3-fluoro-5-(2-hydroxypropan-2-yl)thiophen-2-ylsulfonimidoyl)acetamide] |
| 5000 to 30000 | CCc1cc(OC(F)F)cc(C(C)C)c1CC(=O)N=S(N)(=O)c1sc(C(C)(C)O)cc1F (single isomer, unassigned) [Example 79, (R)- or (S)-2-(4-(difluoromethoxy)-2-ethyl-6-isopropylphenyl)-N-(3-fluoro-5-(2-hydroxypropan-2-yl)thiophen-2-ylsulfonimidoyl)acetamide] |
| 8 to 40 | CC(C)c1cc(C(F)F)cc(C(C)C)c1CC(=O)N=S(N)(=O)c1sc(C(C)(C)O)cc1F (single isomer, unassigned) [Example 80, (S)- or (R)-2-(4-(difIuoromethyl)-2,6-diisopropylphenyl)-N-(3-fluoro-5-(2-hydroxypropan-2-yl)thiophen-2-ylsulfonimidoyl)acetamide] |
